Activity calls are given as the source filed them.
Assays:
[1] = molecular target: Polyadenylate-binding protein 1 (Homo sapiens, UniProt P11940); experiment: PABP inhibition in translation initiation, SAR follow-up (AID 435018); type: functional
[2] = molecular target: Eukaryotic translation initiation factor 4H (Homo sapiens, UniProt Q15056); experiment: inhibitors of translation initiation factor eIF4H – SAR follow-up (AID 435011); type: functional
Tumor necrosis factor = Tumor necrosis factor (Homo sapiens, UniProt P01375); experiment: analog potency on TNFa NF-kB signaling – cell-based, revised, SAR follow-up (AID 2337); type: functional
Chain of Tumor necrosis factor (P01375 whole entry, the tested form may be a part): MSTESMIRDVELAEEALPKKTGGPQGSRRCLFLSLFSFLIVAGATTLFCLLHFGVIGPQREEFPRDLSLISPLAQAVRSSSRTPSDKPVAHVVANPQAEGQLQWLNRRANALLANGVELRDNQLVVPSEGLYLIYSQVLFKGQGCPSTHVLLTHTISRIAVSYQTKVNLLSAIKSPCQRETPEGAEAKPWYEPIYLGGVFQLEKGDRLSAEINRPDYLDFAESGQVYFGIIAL

[3] = molecular target: Nucleotide-binding oligomerization domain-containing protein 2 (Homo sapiens, UniProt Q9HC29); experiment: PubChem AID 2334; type: functional
Chain of Nucleotide-binding oligomerization domain-containing protein 2 (Q9HC29 whole entry, the tested form may be a part): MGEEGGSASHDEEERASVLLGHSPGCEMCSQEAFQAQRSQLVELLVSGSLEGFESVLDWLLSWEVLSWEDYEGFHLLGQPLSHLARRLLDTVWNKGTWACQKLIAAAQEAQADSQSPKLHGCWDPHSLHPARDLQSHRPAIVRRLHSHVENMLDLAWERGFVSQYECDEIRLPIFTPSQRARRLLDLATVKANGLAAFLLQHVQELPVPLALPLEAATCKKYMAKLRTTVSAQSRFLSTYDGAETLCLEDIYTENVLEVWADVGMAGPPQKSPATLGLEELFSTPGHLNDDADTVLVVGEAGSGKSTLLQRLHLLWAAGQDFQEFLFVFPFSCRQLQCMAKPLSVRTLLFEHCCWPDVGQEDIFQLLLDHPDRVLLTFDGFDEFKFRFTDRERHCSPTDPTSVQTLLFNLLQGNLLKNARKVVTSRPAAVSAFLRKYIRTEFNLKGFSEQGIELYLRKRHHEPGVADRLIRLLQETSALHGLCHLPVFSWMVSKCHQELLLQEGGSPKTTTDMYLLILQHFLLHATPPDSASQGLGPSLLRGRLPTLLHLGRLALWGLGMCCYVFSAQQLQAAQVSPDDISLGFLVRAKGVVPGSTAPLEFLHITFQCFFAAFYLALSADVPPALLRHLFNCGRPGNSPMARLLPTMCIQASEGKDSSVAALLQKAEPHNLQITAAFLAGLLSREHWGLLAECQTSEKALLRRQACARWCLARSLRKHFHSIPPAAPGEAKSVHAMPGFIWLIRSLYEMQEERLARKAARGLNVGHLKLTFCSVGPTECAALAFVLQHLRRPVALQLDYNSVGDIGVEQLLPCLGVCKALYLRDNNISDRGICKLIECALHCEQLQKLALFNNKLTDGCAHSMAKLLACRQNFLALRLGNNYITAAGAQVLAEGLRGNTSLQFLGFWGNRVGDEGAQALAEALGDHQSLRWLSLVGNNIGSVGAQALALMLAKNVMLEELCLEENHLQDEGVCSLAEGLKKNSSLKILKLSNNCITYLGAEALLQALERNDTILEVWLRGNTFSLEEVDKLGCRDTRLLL

[4] = molecular target: T1, Nucleotide-binding oligomerization domain-containing protein 1 (Homo sapiens, UniProt Q9Y239); experiment: blockers of NOD1 pathway activity – revised, SAR follow-up (AID 2333); type: functional
T1 sequence (Q9Y239 whole entry): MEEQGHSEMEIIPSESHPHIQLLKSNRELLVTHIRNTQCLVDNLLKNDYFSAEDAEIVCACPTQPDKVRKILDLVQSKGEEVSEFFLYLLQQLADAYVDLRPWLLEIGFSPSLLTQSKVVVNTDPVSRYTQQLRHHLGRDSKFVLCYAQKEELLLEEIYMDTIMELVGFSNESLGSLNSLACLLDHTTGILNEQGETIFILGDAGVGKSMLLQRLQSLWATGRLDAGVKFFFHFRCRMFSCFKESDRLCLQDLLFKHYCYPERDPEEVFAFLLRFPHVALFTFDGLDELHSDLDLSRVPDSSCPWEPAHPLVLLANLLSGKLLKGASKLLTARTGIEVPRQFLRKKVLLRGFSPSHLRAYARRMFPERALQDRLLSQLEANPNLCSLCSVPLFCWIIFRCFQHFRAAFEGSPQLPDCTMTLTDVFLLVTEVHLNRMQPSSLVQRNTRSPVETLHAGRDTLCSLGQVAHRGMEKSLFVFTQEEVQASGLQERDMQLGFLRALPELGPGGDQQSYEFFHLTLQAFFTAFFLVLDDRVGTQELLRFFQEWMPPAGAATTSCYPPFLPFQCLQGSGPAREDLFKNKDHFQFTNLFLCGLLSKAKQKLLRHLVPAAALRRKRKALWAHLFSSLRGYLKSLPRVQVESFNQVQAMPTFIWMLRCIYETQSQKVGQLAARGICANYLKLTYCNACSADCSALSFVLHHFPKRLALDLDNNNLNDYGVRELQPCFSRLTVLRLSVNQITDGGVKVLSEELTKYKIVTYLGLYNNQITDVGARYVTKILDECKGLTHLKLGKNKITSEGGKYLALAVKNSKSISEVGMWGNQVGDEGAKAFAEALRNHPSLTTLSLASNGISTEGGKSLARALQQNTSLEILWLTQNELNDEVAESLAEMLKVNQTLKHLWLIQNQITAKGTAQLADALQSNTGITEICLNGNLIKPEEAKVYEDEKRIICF

HEK293 = experiment: cells; conditions: Homo sapiens;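 note: cells exposed to compound for 14 hours overnight before viability readout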
[5] = molecular target: T2, Ubiquitin-conjugating enzyme E2 N (Homo sapiens, UniProt P61088); type: functional;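 note: Dose-response confirmation in a TR-FRET assay detecting UBC13-driven polyubiquitin chain formation, inhibition measured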
T2 sequence (P61088 whole entry): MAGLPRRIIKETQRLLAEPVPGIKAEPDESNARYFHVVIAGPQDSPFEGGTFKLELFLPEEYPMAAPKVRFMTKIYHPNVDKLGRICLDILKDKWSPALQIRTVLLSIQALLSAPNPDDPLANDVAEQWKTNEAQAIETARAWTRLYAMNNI

Integrin alpha-4 = Integrin alpha-4 (Homo sapiens, UniProt P13612); experiment: allosteric modulators of alpha4 integrin VLA-4 – cell-based, LIBS antibody binding, flow cytometry, SAR follow-up (AID 488791); type: functional
Chain of Integrin alpha-4 (P13612 whole entry): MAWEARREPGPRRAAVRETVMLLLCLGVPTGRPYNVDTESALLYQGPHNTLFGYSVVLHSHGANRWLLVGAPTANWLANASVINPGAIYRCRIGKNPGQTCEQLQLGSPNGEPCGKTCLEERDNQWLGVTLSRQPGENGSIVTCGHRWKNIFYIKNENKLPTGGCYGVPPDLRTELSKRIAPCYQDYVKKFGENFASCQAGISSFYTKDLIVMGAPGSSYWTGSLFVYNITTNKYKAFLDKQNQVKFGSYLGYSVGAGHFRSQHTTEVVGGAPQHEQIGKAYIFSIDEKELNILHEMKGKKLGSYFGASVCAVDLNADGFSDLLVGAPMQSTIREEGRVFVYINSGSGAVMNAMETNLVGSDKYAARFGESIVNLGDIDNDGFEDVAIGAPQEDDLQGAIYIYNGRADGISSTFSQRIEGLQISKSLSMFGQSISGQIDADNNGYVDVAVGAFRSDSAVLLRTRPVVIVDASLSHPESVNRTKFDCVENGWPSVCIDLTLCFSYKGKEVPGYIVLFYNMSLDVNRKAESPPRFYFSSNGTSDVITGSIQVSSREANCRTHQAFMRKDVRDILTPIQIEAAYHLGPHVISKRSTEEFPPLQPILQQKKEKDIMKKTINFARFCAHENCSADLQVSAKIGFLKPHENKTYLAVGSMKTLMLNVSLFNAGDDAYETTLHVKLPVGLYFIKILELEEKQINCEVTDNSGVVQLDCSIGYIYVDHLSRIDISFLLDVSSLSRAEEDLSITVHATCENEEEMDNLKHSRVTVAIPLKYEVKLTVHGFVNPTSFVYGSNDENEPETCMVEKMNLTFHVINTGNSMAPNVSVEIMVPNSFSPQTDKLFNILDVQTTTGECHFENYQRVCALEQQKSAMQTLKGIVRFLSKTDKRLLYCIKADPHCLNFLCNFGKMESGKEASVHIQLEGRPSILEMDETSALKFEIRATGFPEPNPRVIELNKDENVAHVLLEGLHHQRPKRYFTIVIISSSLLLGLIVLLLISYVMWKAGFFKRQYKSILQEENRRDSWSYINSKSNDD

[6] = Luminescence Cell-Based Dose Retest to Confirm Inhibitors of Cancer Stem Cells. [Related pubchem assays (depositor defined):AID2717, AID2721]; type: functional; conditions: Homo sapiens
[7] = Counterscreen for IDE inhibitors: Luminescence-based cell-based high throughput dose response assay to identify compounds that are cytotoxic to HEK cells. [Related pubchem assays: 434962 (Primary screen (IDE inhibitors in singlicate)), 449730 (Counterscreen (Cytotoxicity in triplicate)), 435028 (Confirmation (IDE inhibitors in triplicate)) …; type: functional; conditions: HEK293
Insulin-degrading enzyme = molecular target: T3, Insulin-degrading enzyme (Homo sapiens, UniProt P14735); experiment: Dose Response: Fluorescence polarization-based cell-based high throughput dose response assay for inhibitors of insulin-degrading enzyme (IDE). [Related pubchem assays: 434962 (Primary screen (IDE inhibitors in singlicate)), 449730 (Counterscreen (Cytotoxicity in triplicate)), 435028 (Confirmation (IDE inhibitors in triplicate)), 434984 (Summary …; type: functional
T3 sequence (P14735 whole entry): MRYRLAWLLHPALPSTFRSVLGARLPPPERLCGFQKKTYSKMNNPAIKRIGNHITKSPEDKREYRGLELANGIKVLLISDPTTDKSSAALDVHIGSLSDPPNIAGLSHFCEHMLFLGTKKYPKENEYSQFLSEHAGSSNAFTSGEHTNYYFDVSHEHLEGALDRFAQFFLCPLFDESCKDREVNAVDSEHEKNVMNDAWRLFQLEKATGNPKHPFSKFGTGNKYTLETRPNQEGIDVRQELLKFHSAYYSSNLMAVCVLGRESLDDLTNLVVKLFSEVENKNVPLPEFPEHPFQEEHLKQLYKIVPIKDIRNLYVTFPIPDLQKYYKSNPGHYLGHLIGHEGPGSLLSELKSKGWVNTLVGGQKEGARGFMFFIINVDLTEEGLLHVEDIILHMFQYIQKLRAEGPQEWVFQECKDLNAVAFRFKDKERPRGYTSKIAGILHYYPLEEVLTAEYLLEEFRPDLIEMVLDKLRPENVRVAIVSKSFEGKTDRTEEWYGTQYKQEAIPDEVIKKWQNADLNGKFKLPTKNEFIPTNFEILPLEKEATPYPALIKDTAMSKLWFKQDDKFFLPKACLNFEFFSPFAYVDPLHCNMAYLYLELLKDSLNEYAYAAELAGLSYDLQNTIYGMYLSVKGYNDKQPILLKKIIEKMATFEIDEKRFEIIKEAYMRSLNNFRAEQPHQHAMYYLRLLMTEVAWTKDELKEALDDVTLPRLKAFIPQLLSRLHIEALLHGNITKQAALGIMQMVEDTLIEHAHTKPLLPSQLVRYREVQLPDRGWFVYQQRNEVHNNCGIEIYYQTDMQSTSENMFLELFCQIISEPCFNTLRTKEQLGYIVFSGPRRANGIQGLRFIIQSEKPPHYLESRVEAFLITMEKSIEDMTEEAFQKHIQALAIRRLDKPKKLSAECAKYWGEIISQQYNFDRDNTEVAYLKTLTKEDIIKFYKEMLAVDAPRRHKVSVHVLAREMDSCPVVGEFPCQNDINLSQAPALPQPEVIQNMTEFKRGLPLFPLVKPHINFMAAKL

[8] = molecular target: T4, RNA-binding protein pos-1 (Caenorhabditis elegans, UniProt G5EF15); experiment: disruptors of C. elegans POS-1 RNA interaction – biochemical, fluorescence polarization, dose response (AID 1964);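 note: purified POS-1 fused to maltose binding protein made in E. coli; potency of compounds blocking POS-1 binding to fluorescent RNA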
T4 sequence (G5EF15 whole entry): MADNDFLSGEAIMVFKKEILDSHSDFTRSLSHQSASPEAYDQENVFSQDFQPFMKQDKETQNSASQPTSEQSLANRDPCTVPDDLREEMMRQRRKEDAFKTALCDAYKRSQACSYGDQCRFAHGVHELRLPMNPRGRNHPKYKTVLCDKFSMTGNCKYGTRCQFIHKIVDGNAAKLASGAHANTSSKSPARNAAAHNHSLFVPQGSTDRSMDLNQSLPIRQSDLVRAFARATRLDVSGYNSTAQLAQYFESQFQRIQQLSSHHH

[9] = molecular target: T5, Zinc finger protein mex-5 (Caenorhabditis elegans, UniProt Q9XUB2); experiment: potency of MEX-5 RNA-binding blockers – biochemical, C. elegans, fluorescence polarization, dose response (AID 1960)
T5 sequence (Q9XUB2 whole entry): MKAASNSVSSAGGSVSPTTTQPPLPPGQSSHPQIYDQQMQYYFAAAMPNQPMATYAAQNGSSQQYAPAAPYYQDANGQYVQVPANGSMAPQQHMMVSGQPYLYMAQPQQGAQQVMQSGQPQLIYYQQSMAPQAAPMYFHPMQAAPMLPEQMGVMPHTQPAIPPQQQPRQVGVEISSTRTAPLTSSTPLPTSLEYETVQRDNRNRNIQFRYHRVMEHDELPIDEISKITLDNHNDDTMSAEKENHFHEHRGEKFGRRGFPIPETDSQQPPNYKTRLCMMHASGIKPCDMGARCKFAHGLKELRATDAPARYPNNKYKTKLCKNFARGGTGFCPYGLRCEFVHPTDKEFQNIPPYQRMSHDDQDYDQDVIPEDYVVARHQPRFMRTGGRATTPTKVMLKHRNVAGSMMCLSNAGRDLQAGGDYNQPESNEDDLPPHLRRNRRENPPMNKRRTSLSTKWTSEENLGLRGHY

[10] = Trypanosoma cruzi growth suppression in host cells – NIH3T3 host cells, beta-gal luminescence, confirmation (AID 2044); type: functional, cell-based;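 note: intracellular parasites grown in NIH/3T3 mouse fibroblasts as host cells; luminescent beta-galactosidase reporter signal from transgenic T. cruzi replicating inside host cells; inhibitors lower the luminescence signal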
[11] = NIH3T3 cell viability loss – ATP luminescence, mouse fibroblasts, counter-screen, dose response (AID 2010); type: functional, cell-based;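 note: cells exposed to compound for about 90 hours before reading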
[12] = molecular target: Neurotensin receptor type 1 (Homo sapiens, UniProt P30989); type: functional;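 note: Image-based confirmatory dose-response assay measuring agonist activity at NTR1; NTR1-expressing U2OS osteosarcoma cells imaged for beta-arrestin GFP spot formation; agonist potency where compounds increase beta-arrestin recruitment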
Chain of Neurotensin receptor type 1 (P30989 whole entry): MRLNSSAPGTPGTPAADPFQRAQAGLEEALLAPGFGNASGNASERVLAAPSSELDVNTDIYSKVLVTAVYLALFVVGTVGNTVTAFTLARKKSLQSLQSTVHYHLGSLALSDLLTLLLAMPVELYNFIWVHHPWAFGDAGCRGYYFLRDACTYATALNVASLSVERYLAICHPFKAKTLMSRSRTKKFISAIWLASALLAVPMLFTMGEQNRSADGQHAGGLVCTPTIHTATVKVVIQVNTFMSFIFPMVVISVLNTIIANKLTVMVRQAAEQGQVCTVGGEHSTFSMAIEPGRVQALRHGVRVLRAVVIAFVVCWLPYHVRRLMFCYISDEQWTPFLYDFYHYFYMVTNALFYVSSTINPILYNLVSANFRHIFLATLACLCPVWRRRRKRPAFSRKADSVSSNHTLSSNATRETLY
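Throughout, for AC50: cells exposed to compound for roughly 70 hours or longer before luminescence read.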

Chain of Polyadenylate-binding protein 1 (P11940 whole entry): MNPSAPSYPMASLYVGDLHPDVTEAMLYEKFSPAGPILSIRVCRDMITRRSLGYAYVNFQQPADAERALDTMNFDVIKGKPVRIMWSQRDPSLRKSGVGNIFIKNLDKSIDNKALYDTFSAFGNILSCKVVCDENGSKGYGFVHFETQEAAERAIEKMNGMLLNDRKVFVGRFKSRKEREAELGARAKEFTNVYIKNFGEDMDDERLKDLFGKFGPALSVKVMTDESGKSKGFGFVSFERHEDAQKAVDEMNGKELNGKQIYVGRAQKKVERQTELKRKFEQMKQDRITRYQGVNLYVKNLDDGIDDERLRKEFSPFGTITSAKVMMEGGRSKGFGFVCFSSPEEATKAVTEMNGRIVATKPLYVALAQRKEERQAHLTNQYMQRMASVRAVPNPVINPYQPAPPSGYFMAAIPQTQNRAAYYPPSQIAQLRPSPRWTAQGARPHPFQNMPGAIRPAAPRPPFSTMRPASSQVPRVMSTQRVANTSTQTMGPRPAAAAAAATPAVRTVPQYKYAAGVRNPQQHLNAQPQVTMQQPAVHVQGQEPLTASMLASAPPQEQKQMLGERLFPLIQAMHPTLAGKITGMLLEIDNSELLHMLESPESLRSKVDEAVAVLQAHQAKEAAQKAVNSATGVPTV

SMILES: O=C(Nc1ccc(F)cc1)C1CCCN1C(=O)Oc1ccccc1 (centres undefined)
- IC50 [1]: > 100 µM (inactive)
- IC50 [2]: > 100 µM (inactive)

SMILES: CN(C(=O)C1CCN(C(=O)c2cccs2)CC1)c1ccccc1
- IC50 [1]: > 100 µM (inactive)
- IC50 [2]: > 100 µM (inactive)

SMILES: COC(=O)c1c(NC(=O)c2cccc(F)c2)sc2c1CCC(C)C2 (centres undefined)
- IC50 (Tumor necrosis factor): > 20 µM (inactive)
- IC50 [3]: > 20 µM (inactive)
- IC50 [4]: > 20 µM (inactive)
- IC50 (HEK293): > 20 µM (inactive)

SMILES: c1ccc2c(-c3ccc(OCCN4CCCCC4)cc3)c(-c3ccsc3)sc2c1
- IC50 [5]: > 20 µM (inactive)
- EC50 (Integrin alpha-4): > 69.8 µM (inactive)
- AC50 [6]: 1.27 µM (active)

SMILES: O=C1CCC/C(=N/NC(=O)c2sc3ccccc3c2Cl)C1
- IC50 [7]: > 55.7 µM (not active)
- IC50 (Insulin-degrading enzyme): 26.3 µM (not active)
- EC50 [8]: 22 µM (active)
- EC50 [9]: 20.5 µM (active)

SMILES: Oc1ccc(-c2cc(-c3ccc(O)cc3)nc(-c3ccccc3)n2)cc1
- EC50 [10]: 3.86 µM (active)
- EC50 [11]: > 60 µM (not active)
- EC50 [12]: 19.4 µM (active)
- AC50 [6]: 1.81 µM (active)

Source: ChEMBL document CHEMBL1201862, “PubChem BioAssay data set” (2004)
